# Measurements as given in patent US8912222B2, “Method to control insects resistant to common insecticides” (priority 2006, dated 2014).
# Like-named read-outs stand apart in the source and are kept apart here. Marks after values point to notes of the source that are not given here.
# Key:
# [1] = tested on: insecticide-resistant Q-biotype Bemisia tabaci strain CHLORAKA; assay: Leaf-disc dip bioassay on adult whiteflies, neonicotinoid-resistant Q-biotype strain (Example VII); type: in vivo; conditions: for Resistance Ratio: CHLORAKA (R) vs SUD-S (S) LC50; for mortality at 40 ppm / mortality at 100 ppm / mortality at 500 ppm: 72 h
# Procedure: (§1) The activity of commercial, neonicotinoid insecticides was also assessed and served as the basis for comparisons of relative efficacy on this insecticide-resistant whitefly strain.
# (§2) The common name associated with the Q-biotype of B. tabaci is the sweetpotato whitefly. […] The SUD-S strain of B. tabaci was the reference strain used in these tests and is a laboratory strain that is fully susceptible to all insecticide groups.
# (§3) Technical samples of Compounds 6 and 7 were initially dissolved in 90% acetone in distilled water (containing 0.01% Agral) to obtain 5000 ppm stock solutions. […] Commercial formulations of imidacloprid (Confidor, 200SL), thiamethoxam (Actara, 25WG) and acetamiprid (Mospilan, 20SP) were diluted using distilled water containing 0.01% Agral.
# (§4) Adult B. tabaci were removed from rearing cages using a motorized aspirator and, after brief narcosis, 20-30 healthy female whiteflies were placed onto each treated leaf disc. Each unit was sealed with a close-fitting, ventilated lid. Once adults had recovered from narcosis, dishes were inverted so that the leaf disc was facing abaxial side down allowing the adult whiteflies to orient normally. All bioassays consisted of three replicates per concentration (including controls). Mortality was assessed at 48 hours after initiation of the test for the commercial standards and at 72 hours for Compounds 6 and 7.
# (§5) Compounds 6, 7 and the commercial neonicotinoid insecticides imidacloprid, thiamethoxam and acetamiprid were tested in discriminating concentration bioassays against both whitefly strains. More extensive concentration-response bioassays against both whitefly strains were conducted for Compounds 6, 7 and imidacloprid. […] Resistance ratios were calculated using the following equation: […]
# [2] = tested on: Bemisia tabaci SUD-S strain (susceptible laboratory strain); assay: Leaf-disc dip bioassay on adult whiteflies, susceptible reference strain (Example VIII); type: in vivo
# Procedure: as §1, with “The insecticidal activity of Compound 7 on adults from an insecticide-resistant, B-biotype Bemisia tabaci strain was assessed. The” for “The”
# (§6) The common name associated with the B-biotype of B. tabaci is the silverleaf whitefly. The strain used in these tests, “GUA-MIX”, was collected from a variety of crops situated in the Zacapa Valley of Guatemala in January of 2004. […] The SUD-S strain of B. tabaci was the reference strain used in these tests and is a laboratory strain that is fully susceptible to all insecticide groups.
# (§7) A technical sample of Compound 7 was initially dissolved in 90% acetone in distilled water (containing 0.01% Agral) to obtain a 5000 ppm stock solution. […] Commercial formulations of imidacloprid (Confidor, 200SL), thiamethoxam (Actara, 25WG) and acetamiprid (Mospilan, 20SP) were diluted using distilled water containing 0.01% Agral.
# as §4, with “Compound” for “Compounds 6 and”
# as §5, with “Compound” for “Compounds 6,”
# [3] = tested on: insecticide-resistant Myzus persicae strain 4013A; assay: Leaf-disc dip bioassay on adult aphids, insecticide-resistant strain (Example IX); conditions: for Resistance Ratio: 4013A (R) vs US1L (S) LC50
# Source text: (§8) Activity was compared to that of commercial insecticides representing major insecticide classes.
# (§9) The common name associated with Myzus persicae is the green peach aphid. […] The “US1L” strain of M. persicae was the reference strain used in these tests.
# (§10) Subsequent dilutions used a 10% solution of acetone in distilled water (containing 0.01% Agral®) as the diluent.
# (§11) For M. persicae bioassays, discs cut from fully expanded leaves of Chinese cabbage (Brassica rapa ssp. Pekinensis cv. Won Bok) plants were dipped into serial dilutions of insecticide, allowed to air-dry, and placed onto agar-water (1%) beds in plastic Petri-dishes. Leaf discs immersed in the diluent only were used for controls. Adults were removed from rearing boxes and, using a fine camel-hair paint brush, 10 healthy, apterous females were placed onto each treated leaf disc and each unit sealed with a close-fitting, ventilated lid. All bioassays consisted of three replicates per dose (including controls). Mortality was scored at 24, 48 and 72 h following initial exposure for all compounds and the 72 h data were used for all analyses.
# (§12) Mortality data were subjected to probit analysis to derive LC50 and LC90 estimates. Resistance ratios were calculated using the following equation: […]
# [4] = tested on: insecticide-resistant B-biotype Bemisia tabaci strain GUA-MIX; assay: Leaf-disc dip bioassay on adult whiteflies, neonicotinoid-resistant B-biotype strain (Example VIII); type: in vivo; conditions: for Resistance Ratio: GUA-MIX (R) vs SUD-S (S) LC50
# Procedure: as §1, with “The insecticidal activity of Compound 7 on adults from an insecticide-resistant, B-biotype Bemisia tabaci strain was assessed. The” for “The”
# as §6, §7
# as §4, with “Compound” for “Compounds 6 and”
# as §5, with “Compound” for “Compounds 6,”
# [5] = tested on: Bemisia tabaci SUD-S strain (susceptible laboratory strain); assay: Leaf-disc dip bioassay on adult whiteflies, susceptible reference strain (Example VII); type: in vivo; conditions: for mortality at 40 ppm / mortality at 100 ppm / mortality at 500 ppm: 72 h
# Procedure: as §1, §2, §3, §4, §5
# [6] = tested on: insecticide-resistant Q-biotype Bemisia tabaci strain CHLORAKA; assay: Leaf-disc dip bioassay on adult whiteflies, insecticide-resistant Q-biotype strain (Example IX); type: in vivo; conditions: for Resistance Ratio: CHLORAKA (R) vs SUD-S (S) LC50
# Source text: as §2
# as §4, with “2, 4,” for “6”, “5.” for “7.”
# (§13) Resistance ratios were calculated using the following equation: […]
# [7] = tested on: Bemisia tabaci SUD-S strain (susceptible laboratory strain); assay: Leaf-disc dip bioassay on adult whiteflies, susceptible reference strain (Example IX); type: in vivo
# Source text: as §2
# as §4, with “2, 4,” for “6”, “5.” for “7.”
# as §13
# [8] = tested on: Myzus persicae US1L strain (susceptible)
# Source text: as §8, §9, §10, §11, §12
# [9] = tested on: field-collected populations of the whitefly, Bemisia tabaci; conditions: field-collected B. tabaci strains, late 1990s onward; literature; cited from earlier work
# [10] = Bemisia tabaci, 48 h, read-out: Mortality, R Strain (CHLORAKA)
# [11] = probit analysis, mortality at 72 hours for Compounds 6 and 7, 48 hours for commercial standard
# [12] = Bemisia tabaci, 48 h, read-out: Mortality, S Strain (SUD-S)
# [13] = probit analysis, mortality at 72 hours for Compound 7, 48 hours for commercial standard
# [14] = probit analysis, 72 h mortality data
# [15] = Bemisia tabaci, 48 h, read-out: Mortality, R Strain (GUA-MIX)
# [16] = probit analysis, mortality at 72 hours for Compounds 2, 4, 5, 48 hours for commercial standards
# [17] = Bemisia tabaci, read-out: Mortality, R Strain (CHLORAKA)
# [18] = Bemisia tabaci, 72 h, read-out: Mortality, S Strain (SUD-S)
# [19] = Bemisia tabaci, 72 h, read-out: Mortality, R Strain (GUA-MIX)
# [20] = Bemisia tabaci, read-out: Mortality, S Strain (SUD-S)
structure (smiles),measurement,setting,value
"O=[N+]([O-])NC1=NCCN1Cc1ccc(Cl)nc1 [Imidacloprid, imidacloprid]",mortality at 32 ppm,[1]; [10],2%
same,mortality at 128 ppm,[1]; [10],2%
same,mortality at 4096 ppm,[1]; [10],25%
same,Resistance Ratio,[1],>930**
same,effect of exposure on adults of the CHLORAKA strain,[1]; imidacloprid at 1000 ppm,largely unaffected
same,"LC50, R strain (CHLORAKA)",[1]; [11],>4000 ppm
same,mortality at 32 ppm,[2]; [12],74%
same,mortality at 128 ppm,[2]; [12],87%
same,"LC50, S strain (SUD-S)",[2]; [13],11.2 ppm
same,Resistance Ratio,[3],17
same,"LC50, R strain (4013A)",[3]; [14],15.3 ppm
same,mortality at 32 ppm,[4]; [15],8%
same,mortality at 128 ppm,[4]; [15],39%
same,mortality at 2048 ppm,[4]; [15],49%
same,Resistance Ratio,[4],>45.5**
same,effect on the majority of adults of the GUA-MIX strain,[4]; imidacloprid concentrations of 1000 ppm,largely unaffected
same,"LC50, R strain (GUA-MIX)",[4]; [13],>500.0 ppm
same,mortality at 32 ppm,[5]; [12],83%
same,mortality at 128 ppm,[5]; [12],95%
same,"LC50, S strain (SUD-S)",[5]; [11],4.3 ppm
same,Resistance Ratio,[6],>800**
same,effect of exposure on adults of the CHLORAKA strain,[6]; imidacloprid at 1000 ppm,largely unaffected
same,"LC50, R strain (CHLORAKA)",[6]; [16],>1000 ppm
same,"LC50, S strain (SUD-S)",[7]; [16],1.2 ppm
same,"LC50, S strain (US1L)",[8]; [14],0.9 ppm
same,resistance of more recently-collected whitefly strains,[9],more than 100 fold
"CN1COCN(Cc2cnc(Cl)s2)/C1=N\[N+](=O)[O-] [Thiamethoxam, thiamethoxam]",mortality at 32 ppm,[1]; [10],0%
same,mortality at 512 ppm,[1]; [10],15%
same,mortality at 32 ppm,[2]; [12],57%
same,mortality at 128 ppm,[2]; [12],73%
same,mortality at 25 ppm,[4]; [15],10%
same,mortality at 250 ppm,[4]; [15],51%
same,mortality at 2500 ppm,[4]; [15],87%
same,mortality at 32 ppm,[5]; [12],85%
same,mortality at 512 ppm,[5]; [12],94%
same,resistance of more recently-collected whitefly strains,[9],comparable levels of resistance
"C[C@@H](c1ccc(Cl)nc1)S(C)(=O)=NC#N (single isomer, unassigned) [Compound 7]",mortality at 40 ppm,[1]; [17],37%
same,mortality at 100 ppm,[1]; [17],79%
same,mortality at 500 ppm,[1]; [17],97%
same,Resistance Ratio,[1],5.9
same,"LC50, R strain (CHLORAKA)",[1]; in vivo,53 ppm
same,mortality at 40 ppm,[2]; [18],84%
same,mortality at 100 ppm,[2]; [18],95%
same,"LC50, S strain (SUD-S)",[2]; in vivo,9.3 ppm
same,mortality at 40 ppm,[4]; [19],70%
same,mortality at 100 ppm,[4]; [19],79%
same,Resistance Ratio,[4],3.3
same,"LC50, R strain (GUA-MIX)",[4]; in vivo,30.3 ppm
same,mortality at 40 ppm,[5]; [20],98%
same,mortality at 100 ppm,[5]; [20],97%
same,mortality at 500 ppm,[5]; [20],100%
same,"LC50, S strain (SUD-S)",[5]; in vivo,9.0 ppm
"C/C(=N\C#N)N(C)Cc1ccc(Cl)nc1 [Acetamiprid, acetamiprid]",mortality at 32 ppm,[1]; [10],2%
same,mortality at 512 ppm,[1]; [10],30%
same,mortality at 32 ppm,[2]; [12],65%
same,mortality at 512 ppm,[2]; [12],98%
same,mortality at 32 ppm,[4]; [15],1%
same,mortality at 512 ppm,[4]; [15],63%
same,mortality at 32 ppm,[5]; [12],52%
same,mortality at 512 ppm,[5]; [12],79%
same,resistance of more recently-collected whitefly strains,[9],comparable levels of resistance
"CS(=O)(Cc1ccc(Cl)nc1)=NC#N (stereo not shown) [Compound 4, [(6-Chloropyridin-3-yl)methyl](methyl)oxido-λ^4-sulfanylidenecyanamide]",Resistance Ratio,[3],0.7
same,"LC50, R strain (4013A)",[3]; [14],103 ppm
same,Resistance Ratio,[6],5.2
same,"LC50, R strain (CHLORAKA)",[6]; in vivo,16.5 ppm
same,"LC50, S strain (SUD-S)",[7]; in vivo,3.1 ppm
same,"LC50, S strain (US1L)",[8]; in vivo,146 ppm
"CCCSP(=O)(OCC)Oc1ccc(Br)cc1Cl (stereo not shown) [Profenofos, profenofos]",Resistance Ratio,[6],189 ^
same,"LC50, R strain (CHLORAKA)",[6]; [16],374 ppm
same,"LC50, S strain (SUD-S)",[7]; [16],2.0 ppm
"CC(c1ccc(C(F)(F)F)nc1)S(C)(=O)=NC#N (stereo not shown) [Compound 2, [1-(6-Trifluoromethylpyridin-3-yl)ethyl](methyl)-oxido-λ^4-sulfanylidenecyanamide]",Resistance Ratio,[3],0.4
same,"LC50, R strain (4013A)",[3]; [14],1.52 ppm
same,Resistance Ratio,[6],2.8
same,"LC50, R strain (CHLORAKA)",[6]; [16],5.0 ppm
same,"LC50, S strain (SUD-S)",[7]; [16],1.8 ppm
same,"LC50, S strain (US1L)",[8]; [14],4.13 ppm
"C[C@H](c1ccc(Cl)nc1)S(C)(=O)=NC#N (single isomer, unassigned) [Compound 6]",mortality at 40 ppm,[1]; [17],39%
same,mortality at 100 ppm,[1]; [17],79%
same,mortality at 500 ppm,[1]; [17],96%
same,Resistance Ratio,[1],6.1
same,"LC50, R strain (CHLORAKA)",[1]; in vivo,45 ppm
same,mortality at 40 ppm,[5]; [20],99%
same,mortality at 100 ppm,[5]; [20],100%
same,mortality at 500 ppm,[5]; [20],100%
same,"LC50, S strain (SUD-S)",[5]; in vivo,7.4 ppm
"CC1(C)[C@H](C(=O)O[C@H](C#N)c2cccc(Oc3ccccc3)c2)[C@@H]1C=C(Br)Br [Deltamethrin, deltamethrin]",Resistance Ratio,[3],60
same,"LC50, R strain (4013A)",[3]; in vivo,92 ppm
same,Resistance Ratio,[6],815 ^
same,"LC50, R strain (CHLORAKA)",[6]; [16],325 ppm
same,"LC50, S strain (SUD-S)",[7]; [16],0.4 ppm
same,"LC50, S strain (US1L)",[8]; [14],1.5 ppm
"CC(c1ccc(Cl)nc1)S(C)(=O)=NC#N (stereo not shown) [Compound 5, [1-(6-Chloropyridin-3-yl)ethyl](methyl)oxido-λ^4-sulfanylidenecyanamide]",Resistance Ratio,[3],0.2
same,"LC50, R strain (4013A)",[3]; [14],12.5 ppm
same,Resistance Ratio,[6],2.9
same,"LC50, R strain (CHLORAKA)",[6]; in vivo,13.2 ppm
same,"LC50, S strain (SUD-S)",[7]; in vivo,4.5 ppm
same,"LC50, S strain (US1L)",[8]; in vivo,62.3 ppm
"Cc1nc(N(C)C)nc(OC(=O)N(C)C)c1C [Pirimicarb, pirimicarb]",Resistance Ratio,[3],>60**^
same,"LC50, R strain (4013A)",[3]; [14],>1000 ppm
same,"LC50, S strain (US1L)",[8]; [14],14.8 ppm
